# Experimental data as given in US20090233931A1, “THERAPEUTIC COMPOUNDS” (priority 2008, published 2009).
# System: lashes and adjacent hairs of glaucoma patients
# Assay: Eyelash/hair growth observed in glaucoma patients treated in one eye
# Assay type: in vivo, humans
# Details: glaucoma patient treated in one eye only
# Description: In the course of treating patients having glaucoma, treatment may only be appropriate in one eye. […] The lash appearance on the lids of the treated eyes would have appeared quite attractive if it represented a bilateral phenomenon. As a result of its asymmetric nature, the long lashes on one side could be construed as disturbing from a cosmetic standpoint. A systemic examination was preformed as a result of the asymmetric phenomenon. It soon became apparent that this altered appearance was not an isolated finding. […] Definite differences could be identified to varying degrees in the lashes and adjacent hairs of all patients who were taking the drug on a unilateral basis for longer than 6 months.
# The changes in the lashes were apparent on gross inspection in several patients once attention was focused on the issue. In those with light colored hair and lashes, the differences were only seen easily with the aid of the high magnification and lighting capabilities of the slit lamp biomicroscope. In the course of glaucoma follow-up examination, attention is generally immediately focused on the eye itself. As a result of the high power magnification needed only one eye is seen at a time and the eye is seen at a high enough power that the lashes are not in focus. […]
smiles,measurement,value
CCNC(=O)CCC/C=C\C[C@@H]1[C@@H](/C=C/[C@@H](O)CCc2ccccc2)[C@H](O)C[C@@H]1O [bimatoprost],lash appearance in treated eye versus non-treated eye,"longer, thicker, and fuller"
